Experimental data from patent US11180504B2 (ORCHID PHARMA LTD., priority 2016, dated 2021).
≈ marks a conversion by molar mass, not a printed value. Like-named read-outs stand apart in the source and are kept apart here.

Columns and labels:
[1] = tested on: methicillin-sensitive Staphylococcus aureus; test: MIC by broth micro-dilution (CLSI), methicillin-sensitive S. aureus; format: cell-based; settings: MSSA S. aureus ATCC29213
[2] = tested on: carbapenem sensitive Escherichia coli; test: MIC by broth micro-dilution (CLSI), carbapenem sensitive E. coli; format: cell-based
[3] = tested on: carbapenemase producing K. pneumoniae; test: MIC by broth micro-dilution (CLSI), carbapenemase producing K. pneumoniae; format: cell-based, Klebsiella pneumoniae
[4] = tested on: carbapenem sensitive Pseudomonas aeruginosa; test: MIC by broth micro-dilution (CLSI), carbapenem sensitive P. aeruginosa; format: cell-based
[5] = Staphylococcus aureus, ATCC 29213 / MSSA, read-out: MIC
[6] = Escherichia coli, ATCC25922, ESBL −ve E. coli ATCC25922, read-out: MIC
[7] = KPC-2 K. pneumoniae ATCC BAA-1705
[8] = Pseudomonas aeruginosa, ATCC27853, Meropenem susceptible P. aeruginosa ATCC27853, read-out: MIC
[9] = Klebsiella pneumoniae, ATCCBAA1705, KPC-2 K. pneumoniae ATCC BAA-1705, read-out: MIC

Compound | MIC [1, 5] [µg/mL] | MIC [2, 6] [µg/mL] | MIC [3, 7] [µg/mL] | MIC [4, 8] [µg/mL] | MIC [3, 9] [µg/mL] | MIC [1] [µg/mL] | MIC ([2]; ESBL −ve E. coli ATCC25922) [µg/mL] | MIC ([4]; Meropenem susceptible P. aeruginosa ATCC27853) [µg/mL]
C[C@@H](NC(=O)Cn1cnnn1)[C@H]1C(=O)N2C(C(=O)O)=C(S[C@@H]3CN[C@H](C(=O)N4CCCC45CCCNC5)C3)[C@H](C)[C@H]12 (stereo partly drawn) [Example 503, (4R,5S,6R)-3-((3S,5S)-5-(1,7-diazaspiro[4.5]decane-1-carbonyl)pyrrolidin-3-ylthio)-6-((R)-1-(2-(1H-tetrazol-1-yl)acetamido)ethyl)-4-methyl-7-oxo-1-azabicyclo[3.2.0]hept-2-ene-2-carboxylic acid] | 2 (≈ 3.4 µM) | 0.5 (≈ 0.851 µM) | 1 (≈ 1.7 µM) | 16 (≈ 27.2 µM) |  |  |  | 
C[C@@H](NC(=O)Cn1cnnn1)[C@H]1C(=O)N2C(C(=O)O)=C(S[C@@H]3CN[C@H](C(=O)N4CC5CCNC5C4)C3)[C@H](C)[C@H]12 (stereo partly drawn) [Example 505, (4R,5S,6R)-6-((R)-1-(2-(1H-tetrazol-1-yl)acetamido)ethyl)-4-methyl-3-((3S,5S)-5-(octahydropyrrolo[3,4-b]pyrrole-5-carbonyl)pyrrolidin-3-ylthio)-7-oxo-1-azabicyclo[3.2.0]hept-2-ene-2-carboxylic acid] | 2 (≈ 3.57 µM) | 0.25 (≈ 0.447 µM) |  | 1 (≈ 1.79 µM) | 1 (≈ 1.79 µM) |  |  | 
C[C@@H](NC(=O)Cn1cnnn1)[C@H]1C(=O)N2C(C(=O)O)=C(S[C@@H]3CN[C@H](C(=O)N4CC5CCNC5C4)C3)[C@H](C)[C@H]12 (stereo partly drawn) [Example 506, (4R,5S,6R)-6-((R)-1-(2-(1H-tetrazol-1-yl)acetamido)ethyl)-4-methyl-3-((3S,5S)-5-(octahydropyrrolo[3,4-b]pyrrole-5-carbonyl)pyrrolidin-3-ylthio)-7-oxo-1-azabicyclo[3.2.0]hept-2-ene-2-carboxylic acid] |  |  | 1 (≈ 1.79 µM) |  |  | 4 (≈ 7.15 µM) | 0.25 (≈ 0.447 µM) | 1 (≈ 1.79 µM)
C[C@@H](NC(=O)CSC(F)F)[C@H]1C(=O)N2C(C(=O)O)=C(S[C@@H]3CN[C@H](C(=O)N4CC[C@@H](N)C4)C3)[C@H](C)[C@H]12 [Example 507, (4R,5S,6R)-3-((3S,5S)-5-((R)-3-aminopyrrolidine-1-carbonyl)pyrrolidin-3-ylthio)-6-((R)-1-(2-(difluoromethylthio)acetamido)ethyl)-4-methyl-7-oxo-1-azabicyclo[3.2.0]hept-2-ene-2-carboxylic acid] | 2 (≈ 3.65 µM) | 1 (≈ 1.83 µM) |  | 64 (≈ 117 µM) | 8 (≈ 14.6 µM) |  |  | 
C[C@@H](NC(=O)CN1CCNCC1)[C@H]1C(=O)N2C(C(=O)O)=C(S[C@@H]3CN[C@H](C(=O)N(C)C)C3)[C@H](C)[C@H]12 [Example 508, (4R,5S,6R)-3-((3S,5S)-5-(dimethylcarbamoyl)pyrrolidin-3-ylthio)-4-methyl-7-oxo-6-((R)-1-(2-(piperazin-1-yl)acetamido)ethyl)-1-azabicyclo[3.2.0]hept-2-ene-2-carboxylic acid] | 16 (≈ 31.5 µM) | 2 (≈ 3.93 µM) |  | 128 (≈ 252 µM) | 8 (≈ 15.7 µM) |  |  | 
C[C@@H](NC(=O)CN1CCC(F)(F)C1)[C@H]1C(=O)N2C(C(=O)O)=C(S[C@@H]3CN[C@H](C(=O)N(C)C)C3)[C@H](C)[C@H]12 [Example 512, (4R,5S,6R)-6-((R)-1-(2-(3,3-difluoropyrrolidin-1-yl)acetamido)ethyl)-3-((3S,5S)-5-(dimethylcarbamoyl)pyrrolidin-3-ylthio)-4-methyl-7-oxo-1-azabicyclo[3.2.0]hept-2-ene-2-carboxylic acid] | 8 (≈ 15.1 µM) | 2 (≈ 3.78 µM) |  | > 128 | 64 (≈ 121 µM) |  |  | 
C[C@@H](NC(=O)Cn1cnnn1)[C@H]1C(=O)N2C(C(=O)O)=C(S[C@@H]3CN[C@H](C(=O)NC[C@@H]4CCNC4)C3)[C@H](C)[C@H]12 [Example 513, (4R,5S,6R)-6-((R)-1-(2-(1H-tetrazol-1-yl)acetamido)ethyl)-4-methyl-7-oxo-3-((3S,5S)-5-((R)-pyrrolidin-3-ylmethylcarbamoyl)pyrrolidin-3-ylthio)-1-azabicyclo[3.2.0]hept-2-ene-2-carboxylic acid] | 4 (≈ 7.3 µM) | 0.25 (≈ 0.457 µM) |  | 16 (≈ 29.2 µM) | 1 (≈ 1.83 µM) |  |  | 
C[C@@H](NC(=O)/C(=N\OC(C)(C)C(=O)O)c1csc(N)n1)[C@H]1C(=O)N2C(C(=O)O)=C(S[C@@H]3CN[C@H](C(=O)N4CC[C@@H](N)C4)C3)[C@H](C)[C@H]12 [Example 514, (4R,5S,6R)-3-((3S,5S)-5-((R)-3-aminopyrrolidine-1-carbonyl)pyrrolidin-3-ylthio)-6-((R)-1-((Z)-2-(2-aminothiazol-4-yl)-2-(2-carboxypropan-2-yloxyimino)acetamido)ethyl)-4-methyl-7-oxo-1-azabicyclo[3.2.0]hept-2-ene-2-carboxylic acid] | 16 (≈ 23.6 µM) | 0.5 (≈ 0.737 µM) |  | 32 (≈ 47.1 µM) | 16 (≈ 23.6 µM) |  |  | 
C[C@@H](NC(=O)Cn1cnnn1)[C@H]1C(=O)N2C(C(=O)O)=C(SC3CN(C(=N)N)C3)[C@H](C)[C@H]12 [Example 515, (4R,5S,6R)-6-((R)-1-(2-(1H-tetrazol-1-yl)acetamido)ethyl)-3-(1-carbamimidoylazetidin-3-ylthio)-4-methyl-7-oxo-1-azabicyclo[3.2.0]hept-2-ene-2-carboxylic acid] | 2 (≈ 4.45 µM) | 0.25 (≈ 0.556 µM) |  | 16 (≈ 35.6 µM) | 1 (≈ 2.22 µM) |  |  | 
C[C@@H](NC(=O)Cn1cnnn1)[C@H]1C(=O)N2C(C(=O)O)=C(S[C@@H]3CN[C@H](C(=O)N4CCCNCC4)C3)[C@H](C)[C@H]12 [Example 516, (4R,5S,6R)-3-((3S,5S)-5-(1,4-diazepane-1-carbonyl)pyrrolidin-3-ylthio)-6-((R)-1-(2-(1H-tetrazol-1-yl)acetamido)ethyl)-4-methyl-7-oxo-1-azabicyclo[3.2.0]hept-2-ene-2-carboxylic acid] | 2 (≈ 3.65 µM) | 0.25 (≈ 0.457 µM) |  | 2 (≈ 3.65 µM) | 2 (≈ 3.65 µM) |  |  | 
C[C@@H](NC(=O)Cn1cnnn1)[C@H]1C(=O)N2C(C(=O)O)=C(S[C@@H]3CN[C@H](C(=O)N4CCCN(C(=N)N)CC4)C3)[C@H](C)[C@H]12 [Example 517, (4R,5S,6R)-6-((R)-1-(2-(1H-tetrazol-1-yl)acetamido)ethyl)-3-((3S,5S)-5-(4-carbamimidoyl-1,4-diazepane-1-carbonyl)pyrrolidin-3-ylthio)-4-methyl-7-oxo-1-azabocyclo[3.2.0]hept-2-ene-2-carboxylic acid] | 4 (≈ 6.78 µM) | 0.5 (≈ 0.848 µM) |  | 4 (≈ 6.78 µM) | 2 (≈ 3.39 µM) |  |  | 
COCCNCC(=O)N[C@H](C)[C@H]1C(=O)N2C(C(=O)O)=C(S[C@@H]3CN[C@H](C(=O)N(C)C)C3)[C@H](C)[C@H]12 [Example 518, (4R,5S,6R)-3-((3S,5S)-5-(dimethylcarbamoyl)pyrrolidin-3-ylthio)-6-((R)-1-(2-(2-methoxyethylamino)acetamido)ethyl)-4-methyl-7-oxo-1-azabicyclo[3.2.0]hept-2-ene-2-carboxylic acid] | 8 (≈ 16.1 µM) | 1 (≈ 2.01 µM) |  | 128 (≈ 257 µM) | 4 (≈ 8.04 µM) |  |  | 
CNC[C@@H]1CCCN1CC(=O)N[C@H](C)[C@H]1C(=O)N2C(C(=O)O)=C(S[C@@H]3CN[C@H](C(=O)N(C)C)C3)[C@H](C)[C@H]12 [Example 520, (4R,5S,6R)-3-((3S,5S)-5-(dimethylcarbamoyl)pyrrolidin-3-ylthio)-4-methyl-6-((R)-1-(2-((S)-2-((methylamino)methyl)pyrrolidin-1-yl)acetamido)ethyl)-7-oxo-1-azabicyclo[3.2.0]hept-2-ene-2-carboxylic acid] | 16 (≈ 29.8 µM) | 2 (≈ 3.73 µM) |  | > 128 | 16 (≈ 29.8 µM) |  |  | 
